#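 These data come from cells grown in 96-well plates and exposed to compound for 48 hours at five concentrations. The concentration for 50% growth inhibition is given as GI50. TGI: concentration producing complete growth inhibition.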
# How the values were obtained:
# Experiment in all cases: inhibition of tumour cell growth, NCI panel, 48 h
# OVCAR-3 ovarian = tested on: OVCAR-3 ovarian
# LOX IMVI melanoma = tested on: LOX IMVI melanoma
# SF-295 CNS = tested on: SF-295 CNS
# NCI-H23 lung = tested on: NCI-H23 lung
# SK-MEL-2 melanoma = tested on: SK-MEL-2 melanoma
# NCI-H522 lung = tested on: NCI-H522 lung
# IGROV1 ovarian = tested on: IGROV1 ovarian
# SF-268 CNS = tested on: SF-268 CNS
# T-47D breast = tested on: T-47D breast
# OVCAR-5 ovarian = tested on: OVCAR-5 ovarian
SMILES,GI50 (OVCAR-3 ovarian) [µM],TGI (OVCAR-3 ovarian) [µM],GI50 (LOX IMVI melanoma) [µM],TGI (LOX IMVI melanoma) [µM],GI50 (SF-295 CNS) [µM],TGI (SF-295 CNS) [µM],GI50 (NCI-H23 lung) [µM],TGI (NCI-H23 lung) [µM],GI50 (SK-MEL-2 melanoma) [µM],TGI (SK-MEL-2 melanoma) [µM],GI50 (NCI-H522 lung) [µM],TGI (NCI-H522 lung) [µM],GI50 (IGROV1 ovarian) [µM],TGI (IGROV1 ovarian) [µM],GI50 (SF-268 CNS) [µM],TGI (SF-268 CNS) [µM],GI50 (T-47D breast) [µM],TGI (T-47D breast) [µM],GI50 (OVCAR-5 ovarian) [µM],TGI (OVCAR-5 ovarian) [µM]
COCCOc1ccc(-c2nc3ccc(-c4nc5ccc(N6CCN(C)CC6)cc5[nH]4)cc3[nH]2)cc1,0.621,3.13,0.851,2.83,1.38,15.7,1.21,5.09,1.64,3.59,0.341,2.36,1.71,4.81,0.576,5.67,1,9.09,3.59,9.97
CN1CC[C@@H](NC(=O)Nc2ccc(C#N)cc2)C[C@@H]1c1nc2ccccc2[nH]1,> 100,> 100,> 42.5,> 59.5,> 100,> 100,> 42.3,> 60.8,> 100,> 100,> 100,> 100,> 100,> 100,> 100,> 100,> 70.4,> 100,> 100,> 100
COc1cccc(C(=O)NC(c2ccc(C)cc2)c2cc(Cl)c3cccnc3c2O)c1 (centres undefined),0.346,18.6,0.563,11.6,0.382,15.3,0.552,22.2,0.767,9.16,0.291,1.65,0.5,12.4,0.619,12.4,0.517,12.1,1.13,24.4
c1ccc(Sc2ncnc3ccccc23)cc1,14.6,28,6.27,19.8,14.2,45.6,8.52,25.7,22.6,63,7.19,29.1,4.5,34.3,13.9,41.7,9.72,28.4,19.2,37.2
Nc1n[nH]c2cc(F)c([C@@H]3Nc4ccc5[nH]ncc5c4[C@H]4C5CCC(C5)[C@@H]34)cc12 (some centres undefined),0.167,6.35,0.158,6.47,0.12,6.03,0.193,7.77,0.798,20.1,0.106,2.08,0.218,15.6,0.368,14.9,9.96,> 50,0.326,24.4
CN(C)CC1CC/C(=C\c2ccc(O)cc2)C1=O (centres undefined),–,8.33,–,5.51,–,34.5,–,13.2,–,21.1,–,3.17,–,24.1,–,23.1,–,5.34,–,31.6
COC[C@H]1Cn2cc(-c3nc(Nc4ccnn4C)ncc3C)nc2C(=O)N1Cc1ccc(F)c(F)c1,60.6,> 100,0.119,> 100,> 100,> 100,0.181,> 100,0.0964,> 100,–,> 100,0.315,> 100,29.3,> 100,65.5,> 100,0.103,> 100
COc1ccc2nc3cc(Cl)ccc3c(NCCNCC(C)O)c2c1 (centres undefined),2.38,8.04,1.15,2.66,1.68,6.71,1.93,6.16,2.08,4.26,1.48,3.1,2.69,10.2,2.36,12.3,2.16,6.72,1.67,6.3
O=C(O)c1ccc2c(c1C(=O)O)C(=O)OC2(c1ccc(O)cc1)c1ccc(O)cc1,–,> 100,–,> 100,–,> 100,–,> 100,–,> 100,–,> 100,–,> 100,–,> 100,–,> 100,–,> 100
O=C(CCCSc1nc(-c2ccccc2)cc(-c2ccccc2)n1)NO,1.6,6.16,2.26,5.47,2.17,6.98,2,6.11,2.35,12.6,1.86,9.51,1.5,9.13,2.03,5.76,1.76,22,1.37,5.64
Nc1n[nH]c2cccc(C#Cc3cccc(C(=O)Nc4ccc(CN5CCOCC5)c(C(F)(F)F)c4)c3)c12,3.48,12.6,1.67,4.02,2.03,6.1,2.1,11.3,2.07,5.81,2.52,9.28,2.35,7.01,2.72,13.3,1.18,5.76,2.52,19.8

# Reference: PubChem BioAssay (NCI)
